The values below come from patent US10251884B2, “Treatment of cancer and benign proliferative disorders” (The University of Manchester, priority 2013, dated 2019).

One data set has as its system CIN and HPV infections. The conditions noted are these: cited from earlier work.
The subject of the next data set is CIN2 lesions. Conditions: young women aged 18-29; topical, physician applied, 16 weeks; cited from earlier work.
Another data set concerns HPV infection. Conditions: hybrid capture 2 assay; cited from earlier work.
A further data set concerns CIN2/3. Conditions: topical application; cited from earlier work.
The test system of data set [1] is pre-invasive cells derived from the cervix. The conditions noted are these: cited from earlier work.
Data set [2] has as its system more advanced invasive cervical disease. Conditions: cited from earlier work.
The test system of another data set is glioma. The conditions noted are these: ritonavir alone; cited from earlier work.
In a further data set the test system is SiHa cells. The experiment in a line: CellTitre 96 AQ colorimetric cell growth assay. Format: cell-based. The conditions noted are these: 5 μM, 0-72 hours. How it is done:
SiHa cells were grown in RPMI plus 10% FBS and HeLa in DMEM plus 10% FBS. These were seeded at 2000 cells/well for HeLa and 5000 cells/well for SiHa in triplicate into standard tissue culture grade 96 well plates and incubated overnight at 37° C./5% CO2. […] At each time point 20 μl of CellTitre 96® AQ reagent (Promega) was then added to three separate wells per data point and the absorbance (OD490) read after 1 hour at 37° C. The CellTitre 96® AQ reagent is a water soluble MTS formazan version of the well-known MTT reagent which produces a colorimetric readout that is directly proportional to the number of viable cells present.

The conditions of data set [3]: cited from earlier work.
The next data set concerns HeLa cells. Put plainly: Apoptosis by V450 Annexin V / propidium iodide flow cytometry. Format: cell-based. An excerpt:
Staining with V450 Annexin V (BD Biosciences) was used to analyse the percentage of cells within a population that are actively undergoing apoptosis. Propidium Iodide (PI) is a standard DNA-staining flow cytometric viability probe and is used to distinguish viable from nonviable cells. Cells that stain positive for V450 Annexin V and negative for PI are undergoing apoptosis. Cells that stain positive for both V450 Annexin V and PI are either in the end stages of apoptosis, are undergoing necrosis, or are already dead. Cells that stain negative for both V450 Annexin V and PI are alive and not undergoing measurable apoptosis.
For this reason these cells were chosen to evaluate the effects of these compounds on cell death. A 2 ml aliquot of growth medium containing 20,000 cells was seeded into each well of a 6 well plate. […] The growth medium was removed and retained and the cells washed with PBS followed by Incubation with 1 ml of Accutase (Life Technologies, Paisley, UK, Catalog Number A11105-01) per well for 15 mins. The original growth medium was then added back to neutralise the Accutase, and this centrifuged at 1,200 rpm for 5 mins to pellet the cells and this repeated twice with cold PBS. The cell pellet was finally re-suspended in 1× binding buffer (10×=0.1 M Hepes (pH 7.4), 1.4 M NaCl, 25 mM CaCl2) at a concentration of 10^6 cell/ml. A 100 μl aliquot containing 10^5 cells was removed and placed in a 5 ml culture tube and 5 μl of V450 Annexin V added plus 10 μl PI (50 μg/ml) added. The cells were gently mixed and incubated at room temperature for 15 min in the dark then 400 μl of 1× binding buffer was added prior to being analysed by flow cytometry using a Cyan ADP instrument (Beckman Coulter) and Summit software within one hour of the above procedure. The Annexin fluorochrome was excited using a 405 nm laser and the emission measured using a 450/50 nm bandpass filter. The PI was excited using a 488 nm laser and the emission detected using a 613/20 nm bandpass filter. The data was gated to select single cells using a plot of forward scatter against pulse width, and to exclude debris using forward scatter plotted against side scatter. All cytometry assays shown were the result of three separate cultures and intra-assay variability was also assessed by repeating the same drug treatment assay (1:1 Lop/Rit) three times. Unstained cells and cells stained separately with either V450 Annexin V or PI were used as controls to optimise compensation and gating of the cytometer.

Marks after values point to notes of the source that are not given here.

For `CC(C)Cn1cnc2c(N)nc3ccccc3c21` [Imiquimod], the “effect against CIN and HPV infections” value with CIN and HPV infections (before and after LEEP, treatment >8 weeks) is recorded as “some effect”. The side effects result with CIN and HPV infections (direct application to the cervix) is reported as “quite severe”.
As to `O=c1[nH]cc(F)c(=O)[nH]1` [5FU], the “effective against CIN2 lesions” value with CIN2 lesions is on record as more than 90%.
For `Nc1ccn(C[C@@H](CO)OCP(=O)(O)O)c(=O)n1` [Cidofovir], the “elimination of HPV infection” value with HPV infection was “did not eliminate HPV infection”. Further, the “clearance of CIN” value with CIN2/3 is approximately 60%.
With `CC(C)c1nc(CN(C)C(=O)N[C@H](C(=O)N[C@@H](Cc2ccccc2)C[C@H](O)[C@H](Cc2ccccc2)NC(=O)OCc2cncs2)C(C)C)cs1` (relative stereo) [ritonavir, 10-Hydroxy-2-methyl-5-(1-methylethl)-1-[2-(1-methylethyl)-4-thiazolyl]-3,6-dioxo-8, 11bis(phenylmethyl)-2,4,7,12-tetraazatridecan-13-oic acid, 5-thiazolylmethylester, [5S-(5R*,8R*,10R8,11R*)]], the “activity against pre-invasive cells derived from the cervix” value in data set [1] was “has shown activity”. In [2], the “efficacy against more advanced invasive cervical disease” value is on record as “not effective”. The “effect against glioma in vivo” value with glioma is listed as “no effect”. For the same compound, the “effect on cell growth (OD490)” value with SiHa cells is recorded as “no effect”.
With `Cc1cccc(C)c1OCC(=O)N[C@@H](Cc1ccccc1)[C@@H](O)C[C@H](Cc1ccccc1)NC(=O)[C@H](C(C)C)N1CCCNC1=O` (relative stereo) [lopinavir, [1S-[1R*(R*), 3R*, 4R*]]—N-[4-[(2,6-dimethylphenoxy0acetyl]amino]-3-hydroxy-5-phenyl-1-(phenylmethyl)pentyl]tetrahydro-alpha-(1-methylethyl)-2-oxo-1 (2H)-pyrimidineacetamide], in [3], the solubility in water entry was “virtually insoluble in water”. For the same compound, in the data set on HeLa cells (48 hrs, total dose 25 μM, concentrations (μM) in the label), the “R4 gate Mean (percentage of cells in quadrant R4, late stage apoptosis)” value was determined as 21.8000%. In the data set on HeLa cells (48 hrs, versus DMSO control), the “Mean Difference to DMSO, R4 gate (Dunnett t)” value is 15.38*. Also, the “level of apoptosis compared between treatments (FIG. 13)” value in the data set on HeLa cells (total dose 25 μM, R4 and R6+R4) is “less effective than any of the combination treatments”. In addition, in the data set on HeLa cells (versus Lop20Rit5), the “Mean Difference, R4 gate (Bonferonni)” value was −13.45*.
